These results are taken from article PMC10291553, “Exploring Structure–Activity Relationships in Photodynamic Therapy Anticancer Agents Based on Ir(III)-COUPY Conjugates” (Journal of Medicinal Chemistry, 2023).

Structures are written as SMILES.

Data set [1] concerns A2780cis cells. The data set can be described thus: ROS photogeneration in cells (DCFH-DA probe). The data set is classed as cell-based. The settings on record: 10 μM; for ROS levels after 520 nm light, normoxia: normoxia 21% O2, 520 nm, 1 h; for ROS levels in the absence of light, normoxia: dark. As for the experimental part:
ROS levels were determined using the 2′-7′dichlorofluorescein diacetate (DCFH-DA) probe. A2780cis cells were seeded onto 96-well black plates at 2 × 10^4cells/well for 24 h in a humidified CO2 incubator either in normoxia (21% O2) or hypoxia (2% O2). Tested compounds were then administered in cell media for the allowed time. Treatments were then removed, and cells were stained with 10 μM of DCFH-DA for 0.5 h. After staining, cells were washed with PBS twice and irradiated for 1 h with LED source light from Luzchem photoreactor (Canada) fitted with green lamps (final light intensity applied of 1.5 mW/cm^2 at λmax = 520 nm). Fluorescence readings were performed in FLUOstar Omega (λexc = 488 nm and λem = 530 ± 30 nm). Non-irradiated plates were used for dark conditions, whereas treated, unstained cells were used to subtract basal fluorescence of compounds and correct fluorescence readings. Unstained cells served as blank. Three independent experiments were performed with n = 3 replicates.

The next data set relates to A2780cis MCTS. The data set can be described thus: 3D multicellular tumor spheroid growth inhibition. In kind it is cell-based. The settings on record: 10 μM, 4 h incubation; for spheroid shrinkage compared to irradiated controls: 1 h 520 nm; for tumor growth of A2780cis spheres after PDT treatment: 1 h 520 nm on day 3, followed 7 days. As for the experimental part:
Briefly, a single suspension of A2780cis cells at a density of 5 × 10^3 cells/well in complete RPMI medium was dispatched onto 96-well Corning microplates with ultralow attachment surface coating. The plates were covered and transferred to an incubator at 310 K with a 5% CO2 atmosphere. After 3 days post-seeding, uniform MCTSs were formed, which was confirmed using an inverted Zeiss AXIO observer 7 microscope. Cell media of MCTSs was changed by replacing 50% with fresh cell media and allowed to grow for 3 days. On day 3, MTCS was incubated with tested agents (10 μM) for 4 h and then irradiated with 520 nm light for 1 h. Treatments were then carefully removed, and fresh media was added. The integrity, radius, size, and volume of the MCTSs were monitored using a DMi1 inverted phase contrast microscope (Leica Microsystems) over 7 days. The radius of the tumorspheres was measured using Fiji software, and the volume was calculated using the following equation: V = 4/3πr^3.

Data set [2] has as its system A2780cis cells. Nature of the data set: Cellular accumulation by ICP-MS. In kind it is cell-based. The settings on record: 2 h treatment at 10 μM. As for the experimental part: Briefly, A2780cis cells were seeded onto a 12-well plate (3 × 10^5 cells/well). Treatments with tested agents for 2 h were applied at 10 μM. Cisplatin was included for comparative purposes. Cells were then trypsinized, and pellets were counted. […] Three independent experiments were performed (n = 2 replicates).

On the set-up of data set [3]: method as in earlier work. The settings on record: previously-reported parent compounds, cited from earlier work; for singlet oxygen quantum yield at 355 nm, ACN / singlet oxygen quantum yield at 355 nm, DCM / singlet oxygen quantum yield at 355 nm, PBS: excitation 355 nm.
Data set [4] is described as follows: Superoxide anion radical generation using DHR123. In kind it is physicochemical. The settings on record: 10 μM in PBS (0.2% DMSO); green light 505 nm. On the procedure: All compounds (10 μM) were prepared in PBS (0.2% DMSO). To this solution, DHR123 was added so that its final concentration was 10 μM. Then, the samples were irradiated in 1.0 × 0.5 cm cuvette by green light (505 nm centered LED) for indicated time intervals. Immediately, the fluorescence spectra were collected by using a Photon Technology International (PTI) fluorimeter. The excitation wavelength was set to 500 nm, the excitation and emission slit widths were 2 nm, and the integration time was set to 1 s.

Consider `CCCCn1c2[n+](c3cc(C(=O)NC[C@H]4CC[C@H](C(=O)NCCCNC(=O)C[n+]5ccc(/C(C#N)=C6/C=C(C)c7ccc(N(CC)CC)cc7O6)cc5)CC4)ccc31)[Ir-3]13([c]4ccccc4-c4[nH]c5ccccc5[n+]41)([c]1ccccc1-c1[nH]c4ccccc4[n+]13)[n+]1c-2ccc2ccccc21` [3e], for which, in the data set with A2780cis cells [1], the “ROS levels after 520 nm light, normoxia” value is listed as “strong fluorescence signal” and the “ROS levels in the absence of light, normoxia” value was “slightly increased ROS levels”. In addition, in the data set with A2780cis MCTS, the “spheroid shrinkage compared to irradiated controls” value is recorded as “statistically significant shrank” and the “tumor growth of A2780cis spheres after PDT treatment” value (“tumor growth of A2780cis spheres” for short) was “effectively blocked tumoral growth”.
The corresponding values for `CCCCn1c2[n+](c3cc(C(=O)NCCCNC(=O)C[n+]4ccc(/C(C#N)=C5/C=C(C)c6ccc(N(CC)CC)cc6O5)cc4)ccc31)[Ir-3]13([c]4ccccc4-c4[nH]c5ccccc5[n+]41)([c]1ccccc1-c1[nH]c4ccccc4[n+]13)[n+]1c-2ccc2ccccc21` [3a] are “strong fluorescence signal”, “slightly increased ROS levels”, “statistically significant shrank” and “effectively blocked tumoral growth”.
Turning to `CCCCn1c2[n+](c3cc(C(=O)OC)ccc31)[Ir-3]13([c]4ccccc4-c4[nH]c5ccccc5[n+]41)([c]1ccccc1-c1[nH]c4ccccc4[n+]13)[n+]1c-2ccc2ccccc21` [2a], in the data set with A2780cis cells [2], the “Intracellular Ir levels” value is 276 ± 12 ng/10^6 cells. In data set [3] (ACN), the “singlet oxygen quantum yield at 355 nm, ACN” value was 0.42. Moreover, in data set [3] (DCM), the “singlet oxygen quantum yield at 355 nm, DCM” value is given as 0.23. Besides, the “singlet oxygen quantum yield at 355 nm, PBS” value in data set [3] (PBS) is reported as below 0.01.
Regarding `CCCCn1c2[n+](c3cc(C(=O)NCCCNC(=O)C[n+]4ccc(/C(C#N)=C5/C=C(C)c6cc7c8c(c6O5)CCCN8CCC7)cc4)ccc31)[Ir-3]13([c]4ccccc4-c4[nH]c5ccccc5[n+]41)([c]1ccccc1-c1[nH]c4ccccc4[n+]13)[n+]1c-2ccc2ccccc21` [3c], the “ROS levels after 520 nm light, normoxia” value in the data set on A2780cis cells [1] was “strong fluorescence signal”. In addition, the “Intracellular Ir levels” value in the data set on A2780cis cells [2] amounted to 461 ± 74 ng/10^6 cells. The “tumor growth of A2780cis spheres” value in the data set with A2780cis MCTS is “did not show significant tumor inhibition effects”. The “superoxide anion radical generation (DHR123 fluorescence)” value in data set [4] is reported as “fastest rates in superoxide generation”.
Consider `CCCCn1c2[n+](c3cc(C(=O)NCCCNC(=O)C[n+]4ccc(/C(C#N)=C5/C=C(C)c6ccccc6O5)cc4)ccc31)[Ir-3]13([c]4ccccc4-c4[nH]c5ccccc5[n+]41)([c]1ccccc1-c1[nH]c4ccccc4[n+]13)[n+]1c-2ccc2ccccc21` [3b], for which, in the data set on A2780cis cells [1] (hypoxia 2% O2, 520 nm), the “ROS levels after green-light irradiation, hypoxia” value is recorded as “a slight increase in ROS levels”. Besides, the “tumor growth of A2780cis spheres” value with A2780cis MCTS is “did not show significant tumor inhibition effects”. Moreover, the “superoxide anion radical generation (DHR123 fluorescence)” value in data set [4] was “highest maximum emission intensity of superoxide generation”.
With `CCCCn1c2[n+](c3cc(C(=O)NCCCCCC(=O)NCCCNC(=O)C[n+]4ccc(/C(C#N)=C5/C=C(C)c6ccc(N(CC)CC)cc6O5)cc4)ccc31)[Ir-3]13([c]4ccccc4-c4[nH]c5ccccc5[n+]41)([c]1ccccc1-c1[nH]c4ccccc4[n+]13)[n+]1c-2ccc2ccccc21` [3d], in the data set on A2780cis cells [1], the “ROS levels after 520 nm light, normoxia” value is reported as “strong fluorescence signal” and the “ROS levels in the absence of light, normoxia” value is “slightly increased ROS levels”. Besides, the “tumor growth of A2780cis spheres” value with A2780cis MCTS is reported as “effectively blocked tumoral growth”.
For `CCN(CC)c1ccc2c(c1)O/C(=C(/C#N)c1cc[n+](C)cc1)C=C2C` [1a], the “singlet oxygen quantum yield at 355 nm, ACN” value in data set [3] (ACN) was below 0.01. In addition, the “singlet oxygen quantum yield at 532 nm, ACN” value in data set [3] (ACN, excitation 532 nm) is below 0.01. The “singlet oxygen quantum yield at 355 nm, DCM” value in data set [3] (DCM) is reported as below 0.01. In addition, the “singlet oxygen quantum yield at 532 nm, DCM” value in data set [3] (DCM, excitation 532 nm) was 0.03. Further, the “singlet oxygen quantum yield at 355 nm, PBS” value in data set [3] (PBS) is 0. Moreover, the “singlet oxygen quantum yield at 532 nm, PBS” value in data set [3] (PBS, excitation 532 nm) was below 0.01.
